Laboratory results from patent US11517568B2, “Compounds and methods for treating nematode infections” (The Governing Council of The University of Toronto, priority 2018, dated 2022).
Read-outs that look alike come from different tables or passages of the source.

Key:
[1] = test system: wild type fourth-stage C. elegans larvae (L4s); experiment: Locomotory defects (coiled and/or paralysis) in wild type fourth-stage C. elegans larvae on solid substrate; type: in vivo, Caenorhabditis elegans; details: for Activity (%): percent of animals that show coiled and/or paralysis: 60 μM, after 60 min on solid substrate, L4 C. elegans
Description: A preliminary first round of SAR analyses using analogs of exemplary compound Ia was performed and the analogs' ability to induce locomotory defects in wild type fourth-stage C. elegans larvae (L4s) was tested.
If phenotype is observed, a dose-response analysis is performed.

L3 animals = experiment: Abnormal locomotory behaviour of L3 animals on solid agar (extended SAR); type: in vivo, Caenorhabditis elegans; details: for pest or weed control at 3.75 µM / pest or weed control at 15 µM / pest or weed control at 60 µM: Caenorhabditis elegans
Description: 20 animals were scored after either 1, 6 or 24 hours of exposure to drug (as indicated) per replicate. […] Data are reported as the mean % of animals with abnormal phenotype over 4 independent replicates.

[2] = 3.75 uM, 1 h exposure, L3, mean of 4 replicates
[3] = 3.75 uM, 6 h exposure, L3, mean of 4 replicates
[4] = 3.75 uM, 24 h exposure, L3, mean of 4 replicates
[5] = 15 uM, 1 h exposure, L3, mean of 4 replicates
[6] = 15 uM, 6 h exposure, L3, mean of 4 replicates
[7] = 15 uM, 24 h exposure, L3, mean of 4 replicates
[8] = 60 uM, 1 h exposure, L3, mean of 4 replicates
[9] = 60 uM, 6 h exposure, L3, mean of 4 replicates
[10] = 60 uM, 24 h exposure, L3, mean of 4 replicates
[11] = 1 h, read-out: % any phene 1 h (conc.) 3.75
[12] = 1 h, read-out: % any phene 1 h (conc.) 15
[13] = 1 h, read-out: % any phene 1 h (conc.) 60
[14] = 6 h, read-out: % any phene 6 h (conc.) 3.75
[15] = 6 h, read-out: % any phene 6 h (conc.) 15
[16] = 6 h, read-out: % any phene 6 h (conc.) 60
[17] = 24 h, read-out: % any phene 24 h (conc.) 3.75
[18] = 24 h, read-out: % any phene 24 h (conc.) 15
[19] = 24 h, read-out: % any phene 24 h (conc.) 60
[20] = 3.75 uM, 1 h exposure, L3, mean of 4 replicates, read-out: % any phene 1 h (conc.) 3.75
[21] = 3.75 uM, 6 h exposure, L3, mean of 4 replicates, read-out: % any phene 6 h (conc.) 3.75
[22] = 3.75 uM, 24 h exposure, L3, mean of 4 replicates, read-out: % any phene 24 h (conc.) 3.75
[23] = 15 uM, 1 h exposure, L3, mean of 4 replicates, read-out: % any phene 1 h (conc.) 15
[24] = 15 uM, 6 h exposure, L3, mean of 4 replicates, read-out: % any phene 6 h (conc.) 15
[25] = 15 uM, 24 h exposure, L3, mean of 4 replicates, read-out: % any phene 24 h (conc.) 15
[26] = 60 uM, 1 h exposure, L3, mean of 4 replicates, read-out: % any phene 1 h (conc.) 60
[27] = 60 uM, 6 h exposure, L3, mean of 4 replicates, read-out: % any phene 6 h (conc.) 60
[28] = 60 uM, 24 h exposure, L3, mean of 4 replicates, read-out: % any phene 24 h (conc.) 60

Row | Compound | pest or weed control at 3.75 µM (L3 animals; [20]) [%] | pest or weed control at 3.75 µM (L3 animals; [21]) [%] | pest or weed control at 3.75 µM (L3 animals; [22]) [%] | pest or weed control at 15 µM (L3 animals; [23]) [%] | pest or weed control at 15 µM (L3 animals; [24]) [%] | pest or weed control at 15 µM (L3 animals; [25]) [%] | pest or weed control at 60 µM (L3 animals; [26]) [%] | pest or weed control at 60 µM (L3 animals; [27]) [%] | pest or weed control at 60 µM (L3 animals; [28]) [%] | also measured
1 | N#Cc1ccc(N2CCN(CC3CCCCC3)CC2)cc1 [Ik] | – | – | – | – | – | – | – | – | – | Activity (%): percent of animals that show coiled and/or paralysis [1]: 61% +/− 5.0; % any phene 1 h (conc.) 3.75 (L3 animals; [2]): 8.3%; % any phene 6 h (conc.) 3.75 (L3 animals; [3]): 15.0%; % any phene 24 h (conc.) 3.75 (L3 animals; [4]): 0.0%; % any phene 1 h (conc.) 15 (L3 animals; [5]): 45.8%; % any phene 6 h (conc.) 15 (L3 animals; [6]): 37.5%; % any phene 24 h (conc.) 15 (L3 animals; [7]): 23.3%; % any phene 1 h (conc.) 60 (L3 animals; [8]): 91.7%; % any phene 6 h (conc.) 60 (L3 animals; [9]): 98.3%; % any phene 24 h (conc.) 60 (L3 animals; [10]): 100.0%
2 | O=[N+]([O-])c1ccc(N2CCN(CC3CC3)CC2)cc1 [Iq] | – | – | – | – | – | – | – | – | – | Activity (%): percent of animals that show coiled and/or paralysis [1]: 6% +/− 3.2; % any phene 1 h (conc.) 3.75 (L3 animals; [2]): 0.0%; % any phene 6 h (conc.) 3.75 (L3 animals; [3]): 5.0%; % any phene 24 h (conc.) 3.75 (L3 animals; [4]): 0.0%; % any phene 1 h (conc.) 15 (L3 animals; [5]): 4.2%; % any phene 6 h (conc.) 15 (L3 animals; [6]): 29.2%; % any phene 24 h (conc.) 15 (L3 animals; [7]): 0.0%; % any phene 1 h (conc.) 60 (L3 animals; [8]): 32.5%; % any phene 6 h (conc.) 60 (L3 animals; [9]): 36.7%; % any phene 24 h (conc.) 60 (L3 animals; [10]): 4.2%
3 | Fc1ccc(N2CCN(CC3CCCCC3)CC2)cc1 [Ig] | – | – | – | – | – | – | – | – | – | pest or weed control at 3.75 µM (L3 animals; [11]): 21.7%; pest or weed control at 15 µM (L3 animals; [12]): 44.2%; pest or weed control at 60 µM (L3 animals; [13]): 95%; pest or weed control at 3.75 µM (L3 animals; [14]): 0.8%; pest or weed control at 15 µM (L3 animals; [15]): 9.2%; pest or weed control at 60 µM (L3 animals; [16]): 79.2%; pest or weed control at 3.75 µM (L3 animals; [17]): 0%; pest or weed control at 15 µM (L3 animals; [18]): 4.2%; pest or weed control at 60 µM (L3 animals; [19]): 66.7%
4 | c1ccc(N2CCN(C3CCCCCCC3)CC2)cc1 [Icc] | 46.7 | 0 | 0 | 93.3 | 0.8 | 0 | 100 | 33.3 | 0 | –
5 | Clc1ccc(N2CCN(CC3CC4C=CC3C4)CC2)cc1 (stereo not drawn) [Ix] | 89.2 | 100 | 66.7 | 100 | 100 | 100 | 100 | 100 | 100 | –
6 | c1ccc(N2CCN(C3CCCCCC3)CC2)cc1 [Iff] | 24.2 | 6.7 | 0 | 98.3 | 28.3 | 0 | 100 | 51.7 | 0 | –
7 | c1ccc(N2CCN(CC3CCCC3)CC2)cc1 [Ihh] | 4.2 | 0 | 0 | 70 | 1.7 | 0 | 100 | 53.3 | 5 | –
8 | CC1CCC(N2CCN(c3ccccc3)CC2)CC1 (stereo not drawn) [Iz] | 60.8 | 0 | 0 | 96.7 | 6.7 | 0 | 99.2 | 85 | 14.2 | –
9 | Fc1ccc(N2CCN(CC3CC=CCC3)CC2)cc1 (stereo not drawn) [Iy] | 22.5 | 0 | 0 | 77.5 | 35 | 0 | 100 | 99.2 | 58.3 | –
10 | CC1CCC(N2CCN(c3ccc(F)cc3)CC2)CC1 (stereo not drawn) [Ibb] | – | 5 | 0 | – | 75.8 | 13.3 | 100 | 100 | 100 | –
11 | Clc1ccc(N2CCN(C3CCCCCC3)CC2)cc1 [Idd] | – | 86.7 | 34.2 | 100 | 100 | 98.3 | 100 | 97.5 | 97.5 | –
12 | O=[N+]([O-])c1ccc(N2CCN(C3CCCCCC3)CC2)cc1 [Ir] | 43.3 | 9.2 | 0 | – | 88.3 | 30 | 100 | 100 | 100 | –
13 | O=[N+]([O-])c1ccc(N2CCN(C3CCCCCCC3)CC2)cc1 [Is] | 3.3 | 0 | 0 | – | 15 | 0 | 100 | 62.5 | 13.3 | –
14 | Fc1ccc(N2CCN(C3CCCCCC3)CC2)cc1 [Iaa] | 45 | 6.7 | 0 | 89.2 | 27.5 | 0 | 100 | 97.5 | 69.2 | –
15 | C1CNCCN1 [Piperazine, reference compound] | – | – | – | – | – | – | – | – | – | Activity (%): percent of animals that show coiled and/or paralysis [1]: 0.00%
16 | Clc1ccc(N2CCN(CC3CCCCC3)CC2)cc1 [Ih] | – | – | – | – | – | – | – | – | – | pest or weed control at 3.75 µM (L3 animals; [11]): 0%; pest or weed control at 15 µM (L3 animals; [12]): 27.5%; pest or weed control at 60 µM (L3 animals; [13]): 55.7%; pest or weed control at 3.75 µM (L3 animals; [14]): 0%; pest or weed control at 15 µM (L3 animals; [15]): 0%; pest or weed control at 60 µM (L3 animals; [16]): 5.8%; pest or weed control at 3.75 µM (L3 animals; [17]): 0%; pest or weed control at 15 µM (L3 animals; [18]): 0%; pest or weed control at 60 µM (L3 animals; [19]): 10.8%
17 | O=[N+]([O-])c1ccc(N2CCN(CC3CCCC3)CC2)cc1 [If] | – | – | – | – | – | – | – | – | – | Activity (%): percent of animals that show coiled and/or paralysis [1]: 98% +/− 1.9; rank among analogs for inducing locomotory defects ([1]; SAR comparison with compound Ia analogs): most potent analog to date
